The test system of experiment [1] is HMLERshEcad cells. The experiment can be described thus: Resistance to cytotoxic agents, transformed HMLERshCntrl vs HMLERshEcad dose response. The experiment is classed as cell-based, human. The following applies: FIG. 2A. The method, then:
(§1) FIGS. 2A-2D depict that passage through the EMT leads to resistance to conventional chemotherapy drugs. FIG. 2A depicts dose response curves of transformed HMLERshCntrl (light gray line) and HMLERshEcad (dark gray line) cells treated with Paclitaxel and Doxorubicin. Dotted line denotes the 50% fraction surviving. […] FIG. 2B depicts the response of immortalized cells to chemotherapy drugs. HMLEshCntrl and HMLEshEcad cells were treated with the indicated drugs at three concentrations for 3 days and assayed for viability using the MTS assay. While Doxorubucin, Actinomycin D, Paclitaxel and Campthotecin are chemotherapeutic drugs, Staurosporine is a general kinase inhibitor that potently induce apoptosis. FIGS. 2C and 2D depict paclitaxel treatment leads to selective expansion of a minority cell population that has undergone an EMT. Control HMLE cells and GFP expressing HMLEshEcad cells were mixed at a ratio of 20:1 and seeded onto 6-well plates in triplicate. DMSO or Paclitaxel at 2.5 nm or 10 nm concentration was added onto the mixed cell populations 1 day after seeding followed by a 3 day incubation. The number of GFP-positive cells at the end of treatment were analyzed by flow cytometry. […] Note the increase in GFP positivity from 5% to 14% upon […] Paclitaxel treatment.
Since the HMLERsiEcad cells have a 100-fold increase in the frequency of cells capable of seeding tumors, we examined their response to two commonly used chemotherapy drugs, relative to HMLERsiGFP controls. We treated cultured HMLERsiGFP and HMLERsiEcad cells for a period of 3 days with either doxorubicin or paclitaxel, at various concentrations.
(§2) Doxorubicin, paclitaxel, actinomycin D, campthotecin and staurosporine were purchased from Sigma and dissolved in dimethyl sulfoxide (dmso). 5000 cells in 100 ul of medium were plated per well in 96-well plates. 24 hrs after seeding, compounds at the indicated concentration were added to wells (5 wells per each concentration). Dmso treatment was used as negative control. Cell viability was measured after 72 hrs using the CellTiter96 AQueous Assay (Promega) according to manufacturer's instructions. Dose response curves were generated with GraphPad Prism software (GraphPad Software, Inc.).

The test system of experiment [2] is HMLEshEcad cells. The experiment can be described thus: Resistance to cytotoxic agents, immortalized HMLEshCntrl vs HMLEshEcad (MTS viability). The experiment is classed as cell-based, human. The following applies: three concentrations, FIG. 2B. The method, then: as §1
However, we postulated that the differential drug sensitivity observed was, rather, a consequence of the respective differentiation states of the immortalized cells from which the cancer cell lines were derived. To directly examine this hypothesis, we treated HMLEsiGFP and HMLEsiEcad cells for a period of […] with a series of chemical compounds at 3 different concentrations each. Included in these compounds were the established chemotherapy drugs Doxorubicin, Paclitaxel, Actinomycin D, Camptothecin as well as a broad kinase inhibitor, Staurosporine.
as §2

The subject of experiment [3] is HMLEshEcad cells. The experiment can be described thus: Dose-response viability of HMLEshCntrl vs HMLEshEcad cells (validation of hits, 384-well, Cell-Titer-Glo). Format: cell-based, human. The following applies: FIG. 4A; for selective toxicity towards HMLEshEcad cells relative to HMLEshCntrl cells: dose response on retesting. On the procedure: (§3) FIG. 4A depicts dose response curves of HMLEshCntrl (A, light gray curve) and HMLEshEcad (A, dark gray curve) cells treated with the 8 compounds identified during the initial screen. 1000 cells of each line were seeded onto 384 well plates and treated with 8 different concentrations of compounds within a 2.5 log range. The cell viability after 3 day treatment was measured by Cell-Titer-Glo. […] FIG. 4B depicts dose response curves of HMLEshCntrl (curve with square data points) and HMLE-Twist (curve with triangular data points) cells treated with the same compounds as in (A). Note that selectivity of Salinomycin, Abamectin, Etoposide and Nigericin (Top, Left-to-Right) is retained even though a different method of EMT induction is used. […] 1 Day after seeding DMSO, Salinomycin (1.25 or 5 μM) or Abamectin (0.25 or 1.25 μM) was added at the indicated concentration. As the GFP vector contains a Blasticidin resistance gene, we used Blasticidin treatment as a positive control for the expansion of GFP-expressing control HMLE cells. After 3 day incubation the mix population of cells were analyzed by flow cytometry and the percentage of GFP-positive cells were determined. […] FIG. 4D depicts dose response curves of transformed HMLERshCntrl (light gray line) and HMLERshEcad (dark gray lines) cells treated with Salinomycin and Abamectin. Dotted line denotes the 50% fraction surviving.
We pursued 8 of the 32 compounds for further study and evaluated their effects across a range of doses.
For each of these compounds, we evaluated the effect on cell viability across a series of doses for sibling cell lines either induced into or not induced into EMT.
Information about the general automated HTS protocol is available online at broad.harvard.edu/chembio/index.html. The assay was initiated by plating 40 μL of medium containing 1000 cells/well into white 384-well opaque-bottom plates (Nunc, Rochester, N.Y.) using an automated plate filler (Bio-Tek μFiller; Winsooki, Vt.) and allowing the cells to adhere for 24 hours. 100 nL of compound stock solutions in dmso was transferred from stock plates into the 384-well assay plates using an automated pin-based compound transfer robot (CyBio CyBi-Well vario; Woburn, Mass.). For most compounds the final concentration in each well was calculated to be 10 uM.
The screen was performed in duplicate. For negative controls, entire dmso-treated control plates were employed, in addition to dmso-only control wells that were incorporated into each compound assay plate. The cells were assayed for luciferase activity with the addition 20 ul of CellTiter-Glo Luminescent Cell Viability Assay solution (Promega). The luminescent signal from each plate was detected using an automated plate reader (Perkin-Elmer Envision 1; Wellesley, Mass.).
(§4) Individual compounds were purchased from Sigma and dissolved in DMSO with the exception of nigericin which was dissolved in 100% ethanol. Activity of the compounds were quantified by generating dose-response curves for HMLE-shCntrl, HMLE-shEcad and HMLE-Twist under the same cell density and culture conditions described for the initial screen, using the 384-well plate based system.

Experiment [4] deals with HMLE-Twist cells. In words: Dose-response viability of HMLEshCntrl vs HMLE-Twist cells. The experiment is classed as cell-based, human. The following applies: EMT induced by Twist, FIG. 4B. On the procedure: as §3, §4
In experiment [5] the test system is SUM159, MDA-MB-231 and T47D cells. In words: Dose response of breast cancer cell lines differing in CSC marker expression. Format: cell-based. The following applies: range of doses, FIG. 5B. The text has this: FIG. 5A depicts flow cytometry analysis of Sum159, MDA-MB-231 and T47D cell lines with respect to cell surface expression of CD44 and CD24. Note that while the majority of cells in Sum159 and MDA-MB-231 line contain large amounts of CSCs, T47D cells have very few such cells. FIG. 5B depicts dose response curves of Sum159, MDA-MB-231 and T47D cell treated with Salinomycin.
Cancer stem cells are resistant to a wide spectrum of treatments and chemotherapeutics. Since the compounds identified using the described screening approach preferentially target epithelial cells having undergone EMT, we wished to determine whether such compounds might also serve to target cancer stem cells.

Structures are written as SMILES. Entries after “also recorded” stand apart in the source; their conditions may differ.

`CC(=O)O[C@H]1C(=O)[C@@]2(C)[C@H]([C@H](OC(=O)c3ccccc3)[C@]3(O)C[C@H](OC(=O)[C@H](O)[C@@H](NC(=O)c4ccccc4)c4ccccc4)C(C)=C1C3(C)C)[C@]1(OC(C)=O)CO[C@@H]1C[C@@H]2O` [paclitaxel]: in experiment [1] (3 days, various concentrations), the “IC50 for HMLERsiEcad cells relative to IC50 for HMLERsiGFP cells” value is reported as “significantly higher”. Also, the “resistance of HMLERshEcad cells compared to HMLERshCntrl cells” value in experiment [1] is recorded as “significantly more resistant”; in experiment [1] (listed as Paclitaxel), “more resistant”. The “resistance of HMLEshEcad cells relative to HMLEshCntrl control cells” value in experiment [2] is given as “increased resistance”.
For the compound `CC[C@@H](C(=O)[C@@H](C)[C@@H](O)[C@H](C)[C@@H]1O[C@@H]([C@@H](CC)C(=O)O)CC[C@@H]1C)[C@H]1O[C@]2(C=C[C@@H](O)[C@]3(CC[C@@](C)([C@H]4CC[C@](O)(CC)[C@H](C)O4)O3)O2)[C@H](C)C[C@@H]1C` [salinomycin], the “IC50 fold lower for HMLEshEcad cells vs HMLEshCntrl cells” value in experiment [3] (3 day treatment, 8 concentrations) is reported as about 10 fold. Besides, the “selective toxicity towards HMLEshEcad cells relative to HMLEshCntrl cells” value in experiment [3] is “moderate to strong selectivity; also recorded: strong specificity”; in experiment [3] (listed as Salinomycin), “selective toxicity”. In addition, the “selectivity for HMLE-Twist cells vs HMLEshCntrl; dose-response curves compared with HMLEshEcad” value in experiment [4] is listed as “is retained”. Also, the “sensitivity of CSC-enriched SUM159 and MDA-MB-231 relative to CSC-poor T47D cells” value in experiment [5] is on record as “positively correlated; also recorded: more sensitive”.

Values taken from patent US20140294729A1, “METHODS FOR IDENTIFICATION AND USE OF AGENTS TARGETING CANCER STEM CELLS” (Whitehead Institute for Biomedical Research, priority 2008, published 2014).
